Entries after “also recorded” stand apart in the source; their conditions may differ.
Experiments:
[1] = system: Xenopus tadpoles, stage 59-60; assay: Xenopus tadpole assay; details: 10 μg/ml
[2] = system: chick embryo vitelline capillaries; assay: Chick embryo vitelline capillary regression assay; type: in vivo; parameters: key to Vitelline capillary regression: +: Vascular reactivity; 0: No vascular reactivity; +/-: Equivocal reactivity
Outline: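 Compounds were applied to 3-day chick embryos in 0.1 ml of 15% Ficol 400 and PBS. Regression of vitelline capillaries was scored visually 60 minutes later.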

[3] = system: Human colon carcinoma SW948; assay: Growth inhibition in vitro, SW948; type: cell-based; details: 10 μg/ml
From the text: (§1) As set forth in Table 7 below, all malignant tumors evaluated in tissue culture, endothelial cells and vascular smooth muscle cells were sensitive to inhibition. Thus, compound 1436 has application in the control of growth factor dependent proliferation of many types of tissue.

[4] = system: Human ovarian carcinoma SKOV3; assay: Growth inhibition in vitro, SKOV3; type: cell-based; details: 10 μg/ml
From the text: as §1

[5] = system: Human melanoma WM 1617; assay: Growth inhibition in vitro, WM 1617; type: cell-based; details: 10 μg/ml
From the text: as §1

[6] = system: human umbilical venous endothelial cells; assay: Growth inhibition in vitro, human umbilical venous endothelial cells; type: cell-based; details: 10 μg/ml
From the text: as §1

[7] = system: Xenopus tadpoles, stage 59-60; details: 10 μg/mL
[8] = system: bovine pulmonary endothelial cells; assay: Growth inhibition in vitro, bovine pulmonary endothelial cells; type: cell-based; details: 10 μg/ml
From the text: as §1

[9] = system: Murine L1210 leukemia; assay: Growth inhibition in vitro, L1210; type: cell-based; details: 10 μg/ml
From the text: as §1

[10] = system: Human microvascular endothelial cells; assay: Growth inhibition in vitro, human microvascular endothelial cells; type: cell-based; details: 10 μg/ml
From the text: as §1

[11] = system: Human coronary artery smooth muscle cells; assay: Growth inhibition in vitro, human coronary artery smooth muscle cells; type: cell-based; details: 10 μg/ml
From the text: as §1

[12] = system: Lewis lung carcinoma; assay: Growth inhibition in vitro, Lewis lung carcinoma; type: cell-based; details: 10 μg/ml
From the text: as §1

[13] = Effect on arterial resistance and blood pressure; type: in vivo, rat
Experimental: A 200-g rat was catheterized in the right carotid artery, and the compound was introduced over a ten-second period to a total dosage of 5 mg/kg. Within 30 seconds, the mean arterial pressure had fallen from about 100 mm Hg to about 70 mm Hg, with a marked reduction in pulse pressure from about 40 mm to about 10 mm. […] If cardiac output was basically unaffected, reduction in blood pressure would have resulted principally from a reduction in system resistance.
At that time, 40 μg of noradrenaline was introduced.

[14] = system: Human colon carcinoma HT29; assay: Growth inhibition in vitro, HT29; type: cell-based; details: 10 μg/ml
From the text: as §1

[15] = system: PHA-stimulated lymphocytes; assay: Lymphocyte viability in HIV assay; type: cell-based; details: 10080 min
From the text: Results are tabulated below.

[16] = system: B16 melanoma; assay: Suppression of B16 melanoma growth in C57B mice; type: in vivo, mouse
Experimental: The growth of B16 melanoma in C57B mice is dependent upon neovascularization.
Using the growth of B16 melanoma cells in C57B mice, a recognized model for the evaluation of inhibitors of angiogenesis on the growth of cancers, the effects of subcutaneous, intraperitoneal and oral administration of squalamine were evaluated.
Animals were implanted with B16 melanoma followed by treatment with compound 1436 or 1256 administered in a combined schedule or separately. […] Thus, a combination of these two compounds achieves a theraputic benefit in tumors dependent on neovascularization that may prevent metastatic spread.

[17] = system: Xenopus laevis heart; assay: Isolated frog heart, persistence of beating ex vivo; details: 10 μg/ml, room temperature, adrenaline 50 μg/ml; control about one hour
Experimental: To determine if compound 1436 has such utility, the following experiment was performed. The heart of a juvenile Xenopus laevis frog was dissected from the living animal. The heart was placed into a Petri dish containing Krebs-Ringer buffer with adrenaline 50 μg/ml, and examined with the naked eye. At room temperature, the heart continued beating in a coordinated fashion (atrial beat followed by ventricular beat) for about one hour. In the presence of 10 μg/ml of compound 1436, spontaneous beating persisted up to 24 hours.

[18] = Fasting blood glucose in mice; type: in vivo, male CD-1 mice
Experimental: To study the effect of steroid administrator or the NHE responsible for secretion of insulin, several of the aminosterols from shark liver were administered to fasting mice. Male CD-1 mice were assigned to one of four treatment groups. Whole blood glucose was tested using glucometer (Lifescan Glucometer II and One Touch test strips). Statistical analysis was via one-way analysis of variance (ANOVA) followed by subsequent Bonferonni's t-test.

[19] = system: human coronary artery smooth muscle; assay: Growth of human coronary artery smooth muscle in vitro; type: cell-based
From the text: Aminosterols of the invention may also have utility in inhibiting the growth factor mediated proliferation of smooth muscle within the artery. Following coronary angioplasty, reocclusion commonly occurs, secondary to reparative proliferation of the vascular smooth muscle within the wall of the surgically manipulated blood vessel. This process generally takes place over the course of 7-10 days. To evaluate whether an agent could prevent the growth factor mediated proliferation of smooth muscle within the artery, compound 1436 was evaluated in vitro for its effect on the proliferation of human coronary artery smooth muscle. Results for compound 1436 are shown in FIG. 13, and those for squalamine are shown in FIG. 14, with FIG. 15 being a composite logarithmic plot.

[20] = target: rabbit NHE3 (Oryctolagus cuniculus, UniProt P26432); assay: NHE3 inhibition, internal pH (BCECF-AM) in transfected PS120 fibroblasts; details: 10 μg/ml, acid preloaded
Chain of rabbit NHE3 (P26432 30-832): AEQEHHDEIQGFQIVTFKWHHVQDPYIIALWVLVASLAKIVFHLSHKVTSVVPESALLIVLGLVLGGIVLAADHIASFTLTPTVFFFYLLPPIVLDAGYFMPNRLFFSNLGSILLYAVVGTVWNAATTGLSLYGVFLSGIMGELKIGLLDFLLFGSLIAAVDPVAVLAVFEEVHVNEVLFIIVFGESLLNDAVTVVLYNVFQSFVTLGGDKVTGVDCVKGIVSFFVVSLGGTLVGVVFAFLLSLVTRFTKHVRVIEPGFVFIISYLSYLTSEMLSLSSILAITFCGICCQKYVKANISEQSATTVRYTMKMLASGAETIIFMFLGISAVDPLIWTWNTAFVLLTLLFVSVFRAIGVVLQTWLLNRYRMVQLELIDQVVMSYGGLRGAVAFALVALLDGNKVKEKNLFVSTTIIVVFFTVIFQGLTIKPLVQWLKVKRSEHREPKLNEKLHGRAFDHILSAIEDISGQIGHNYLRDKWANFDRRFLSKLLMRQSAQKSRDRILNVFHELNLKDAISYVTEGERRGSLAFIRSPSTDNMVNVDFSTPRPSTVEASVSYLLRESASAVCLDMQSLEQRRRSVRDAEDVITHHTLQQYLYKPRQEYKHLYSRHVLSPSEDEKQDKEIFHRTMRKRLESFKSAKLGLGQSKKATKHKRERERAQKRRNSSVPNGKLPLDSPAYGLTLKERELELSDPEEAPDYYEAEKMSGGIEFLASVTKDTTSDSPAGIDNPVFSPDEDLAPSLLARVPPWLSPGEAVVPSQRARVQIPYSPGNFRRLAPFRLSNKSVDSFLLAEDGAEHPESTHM
Experimental: Internal pH was measured either following acid loading or in the absence of an acid-loading challenge, with the results shown in FIGS. 1A and 1B.
Specifically, PS120 fibroblasts transfected with rabbit NHE3 were grown in supplemented Dulbecco's-modified Eagle's medium as described by Levine et al., J. Biol. Chem. 268, 1993, 25527-25535. […] For cells not acid-preloaded, the actual internal pH value was monitored as a function of time following addition of squalamine, with the results depicted in FIG. 1B.
PS120 fibroblasts transfected with rabbit NHE3 were grown and acid preloaded by exposure to 40 mM NH4 Cl as described above in conjunction with FIGS. 1A and 1B. Internal cellular pH changes expressed as the rate of pH recovery as a function of restored extracellular sodium ion concentration following exposure to 10 μg/ml of the compound were assayed with the fluorescent dye BCECF-AM as described above.

[21] = Effect on growth and weight gain in mice; type: in vivo, C57B mice; details: 10 mg/kg QTD i.p., after 6 doses, about 1 month
Experimental: Animals were dosed QTD (i.p.) starting on Day 1. […] Animals receiving 5 mg/kg QTD experienced about a 50% reduction in growth, compared to untreated controls, while animals receiving 1 mg/kg QTD were affected by about 10%. […] They appeared very much like hypophysectamized animals might appear.

[22] = system: Murine B16 melanoma; assay: Growth inhibition in vitro, B16; type: cell-based; details: 10 μg/ml
From the text: as §1

[23] = system: L1210 lymphoblastic leukemia; assay: Mouse model of L1210 leukemia; details: highest dose (10 mg/kg every 3 days i.p.)
From the text: C57B mice were inoculated with L1210 lymphoblastic leukemia cells at an inoculum that causes leukemia in 100% of animals.

[24] = system: ELC; assay: ELC MTT; type: cell-based; details: Table II; read-out: ELC MTT, Minimum Effective Concentration

CC(C)[C@@H](CC[C@@H](C)[C@H]1CC[C@H]2[C@@H]3[C@H](O)C[C@H]4C[C@@H](NCCCNCCCCNCCCN)CC[C@]4(C)[C@H]3CC[C@]12C)OS(=O)(=O)O [Compound 1436]
Tadpole assay, observed effects [1]: common vascular occlusive effect; also recorded: Gradual reduction in overall activity; also recorded: Melanocytes over head and tail began to swell, first exhibiting visibly distinct nuclei, followed by rupture into fragments; also recorded: dramatic disruption of melanocytes over its head, trunk, and tail, along with depression of its nervous system; also recorded: No effects are observed on epithelial cell integrity, vascular flow, erythrocyte volume, tissue integrity, muscle fiber striation, or GI tract activity
Tadpole time to death [1]: about 2 hours
Vitelline capillary regression ([2]; 0.001 μg applied): +/-
Vitelline capillary regression ([2]; 0.01 μg applied): +
Vitelline capillary regression ([2]; 0.1 μg applied): +
Vitelline capillary regression ([2]; 1 μg applied): +
Vitelline capillary regression ([2]; 10 μg applied): +
Effect on chick embryo vessels ([2]; 3- to 5-day chick embryo): vitelline capillary regression with about the same potency as squalamine
Inhibited in vitro: Human colon carcinoma SW948 [3]: INHIBITED
Inhibited in vitro: Human ovarian carcinoma SKOV3 [4]: INHIBITED
Inhibited in vitro: Human melanoma WM 1617 [5]: INHIBITED
Inhibited in vitro: Human umbilical venous endothelial cells [6]: INHIBITED
Tadpole E (epithelial) [7]: ±
Tadpole GI (gastrointestinal) [7]: -
Tadpole M (melanocytes) [7]: +
Tadpole Mus (muscle) [7]: -
Tadpole V (vascular) [7]: +
Inhibited in vitro: Bovine pulmonary endothelial cells [8]: INHIBITED
Inhibited in vitro: Murine L1210 leukemia [9]: INHIBITED
Inhibited in vitro: Human microvascular endothelial cells [10]: INHIBITED
Inhibited in vitro: Human coronary artery smooth muscle cells [11]: INHIBITED
Inhibited in vitro: Lewis lung carcinoma [12]: INHIBITED
Reversibility of blood pressure effect ([13]; 40 μg of noradrenaline at 30 minutes): readily reversible by standard pharmacological practice
Change of effect over 30 minutes ([13]; 5 mg/kg i.v., followed for 30 minutes): without significant change
Pulse pressure after dosing ([13]; 5 mg/kg i.v., within 30 seconds, from about 40 mm): about 10 mm
Mean arterial pressure after dosing ([13]; 5 mg/kg i.v., within 30 seconds, from about 100 mm Hg): about 70 mm Hg
Inhibited in vitro: Human colon carcinoma HT29 [14]: INHIBITED
% Viability ([15]; 0.5 μM): 91%
% Viability ([15]; 10 μM): 95%
Lymphocyte viability ([15]; 10 μg/ml): 95%
% Viability ([15]; 20 μM): 90.1%
Impact on tumor volume ([16]; compound 1436 10 mg/kg/every 3 days): no significant impact on tumor volume
Tumor growth effect of single agent compared with combination ([16]; squalamine 15 mg/kg/day, compound 1436 alone in a tolerable schedule): Neither administration of squalamine at 15 mg/kg/day nor compound 1436 alone in a tolerable schedule could achieve this effect
Persistence of spontaneous beating [17]: up to 24 hours
Hyperglycemia ([18]; i.v., 1436 in D5W, 1437 in water): caused hyperglycemia in mice
Fasting Blood Glucose Mean ± SEM ([18]; total dose 20 mg/kg i.v. (2 × 10 mg/kg), 30 min. after 2d dose): 105 ± 8.0 mg/dL
Concentration maintaining quiescent state without loss of viability [19]: about 11 μg/ml
Suppression of growth of human coronary artery smooth muscle ([19]; in vitro): suppress in vitro the growth of human coronary artery smooth muscle
Inhibition of rabbit NHE3 [20]: found to inhibit rabbit NHE3; also recorded: inhibitor of NHE3
Growth suppression [21]: growth was almost completely inhibited
Inhibited in vitro: Murine B16 melanoma [22]: INHIBITED
Survival in mice bearing L1210 leukemia [23]: significant prolongation of life
minimal effective concentration [24]: 16.7 µg/mL

From patent US5840936A, “Aminosterol compounds useful as inhibitors of the sodium/proton exchanger (NHE)” (priority 1995, dated 1998)
